Results as given in patent US20250092033A1, “HETEROAROMATIC NITROGEN-OXIDE COMPOUND, PREPARATION METHOD THEREFOR, AND USE THEREOF” (BEIJING AVISTONE BIOTECHNOLOGY CO., LTD., priority 2021, published 2025).

Columns and labels:
[1] = molecular target: T1, MET D1228N (Homo sapiens, UniProt P08581, D1228N); assay: Kinase inhibition experiment (HTRF KinEASE-TK kit), mutant MET D1228N; type: biochemical; conditions: 10 concentrations, 3-fold dilution
T1 construct: purchased Signalchem M52-12IG
Description: (§1) The activity of the compounds was determined by detecting the residual amount of ATP after reacting with wild-type or mutant MET protein kinase by using an HTRF KinEASE-TK kit. […]
(§2) The compounds were determined on the selected kinase, the solvent control was set and a total of 10 concentrations were detected, diluted 3-fold, 2 replicates per concentration.
(§3) 1 volume of 5× kinase reaction buffer and 4 volumes of water; 5 mM MgCl2; 1 mM DTT; 1 mM MnCl2; or 2500 nm SEB.
(§4) 1) 10 nl or 4 μlof the diluted compound was transferred to each well of the reaction plate (784075 or 264706, Greiner or Thermo) with a pipette, the reaction plate was sealed with a sealing plate, and centrifuged at 1000 for 1 minute.
(§5) 2) 2× MET was prepared from 1× enzyme reaction buffer, 5 μl or 2 μl kinase was added to each well of the reaction plate, the reaction plate was sealed with a sealing plate, centrifuged at 1000 g for 30 seconds and incubated at room temperature for 10 min.
(§6) 3) a mixed solution of 2× TK-substrate-biotin and ATP were prepared from 1× enzyme reaction buffer solution, 5 μl or 2 μl TK-substrate-biotin/ATP of the mixed solution was added into a reaction plate, the reaction plate was sealed with a sealing plate, centrifuged at 1000 g for 30 seconds and reacted for 50 minutes or 10 minutes at room temperature.
(§7) 4) a mixed solution of 4× or 2× Sa-XL 665 and TK-antibody-Cryptate were prepared from HTRF detection buffer, 5 or 10 μl of the mixed solution of Sa-XL 665 and TK-antibody-Cryptate was added into each well, centrifuged at 1000 g for 30 seconds, and reacted at room temperature for 1 h.
(§8) 5) the fluorescence signals at 615 nm (cryptate) and 665 nm (XL665) were read with Envision 2104 or TECAN.
(§9) The data was analyzed using GraphPad Prism 6.0 or 7 software, and the dose-response curve was fitted with nonlinear S-curve regression, and the IC50 value was calculated therefrom.
(§10) Enzyme Inhibition Percent (%)=100-(Signalmpd-SignalAve_PC)/(SignalAve_VC-SignalAve_PC)×100

[2] = molecular target: T2, MET F1200I (Homo sapiens, UniProt P08581, F1200I); assay: Kinase inhibition experiment (HTRF KinEASE-TK kit), mutant MET F1200I; type: biochemical; conditions: 10 concentrations, 3-fold dilution
T2 construct: purchased Signalchem M52-12GG/Y767-2
T2 sequence (P08581 25-1390 F1200I): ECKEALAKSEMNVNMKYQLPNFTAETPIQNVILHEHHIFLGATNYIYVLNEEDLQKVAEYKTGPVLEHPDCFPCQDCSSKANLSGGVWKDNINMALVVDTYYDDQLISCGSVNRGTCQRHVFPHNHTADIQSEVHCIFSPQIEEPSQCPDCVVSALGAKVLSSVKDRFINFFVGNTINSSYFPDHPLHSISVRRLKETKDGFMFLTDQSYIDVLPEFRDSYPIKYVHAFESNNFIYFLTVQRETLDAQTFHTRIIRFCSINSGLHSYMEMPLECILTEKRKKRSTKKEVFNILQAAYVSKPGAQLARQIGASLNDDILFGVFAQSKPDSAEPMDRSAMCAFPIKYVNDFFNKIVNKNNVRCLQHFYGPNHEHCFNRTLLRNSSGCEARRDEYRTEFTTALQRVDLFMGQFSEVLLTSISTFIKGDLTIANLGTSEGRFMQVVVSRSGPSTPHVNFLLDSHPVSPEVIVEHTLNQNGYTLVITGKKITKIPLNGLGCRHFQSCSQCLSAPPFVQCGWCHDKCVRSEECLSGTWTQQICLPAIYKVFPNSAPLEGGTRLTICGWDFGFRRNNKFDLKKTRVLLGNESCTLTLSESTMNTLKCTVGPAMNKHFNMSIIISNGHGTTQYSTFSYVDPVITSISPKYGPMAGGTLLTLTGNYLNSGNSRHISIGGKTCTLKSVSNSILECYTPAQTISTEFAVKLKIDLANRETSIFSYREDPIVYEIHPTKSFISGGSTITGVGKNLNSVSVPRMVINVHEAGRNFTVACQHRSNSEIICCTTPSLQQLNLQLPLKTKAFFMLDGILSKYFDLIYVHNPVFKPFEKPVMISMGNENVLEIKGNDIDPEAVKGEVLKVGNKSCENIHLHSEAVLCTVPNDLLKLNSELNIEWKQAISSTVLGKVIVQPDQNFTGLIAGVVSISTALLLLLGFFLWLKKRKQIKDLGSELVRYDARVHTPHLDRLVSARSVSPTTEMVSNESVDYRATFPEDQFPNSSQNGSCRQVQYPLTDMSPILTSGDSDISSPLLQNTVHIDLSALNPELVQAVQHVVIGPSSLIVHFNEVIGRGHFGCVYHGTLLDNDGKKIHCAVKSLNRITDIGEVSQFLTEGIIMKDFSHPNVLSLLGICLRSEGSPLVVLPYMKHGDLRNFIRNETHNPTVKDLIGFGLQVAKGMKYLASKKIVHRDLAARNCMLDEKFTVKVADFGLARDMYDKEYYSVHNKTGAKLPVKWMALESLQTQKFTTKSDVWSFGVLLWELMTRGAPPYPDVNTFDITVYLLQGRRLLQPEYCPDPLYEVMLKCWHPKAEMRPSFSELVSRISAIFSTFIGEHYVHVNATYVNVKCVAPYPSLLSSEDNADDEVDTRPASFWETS
Description: as §1, §2, §3, §4, §5, §6, §7, §8, §9, §10

[3] = system: EBC-1 cell line; assay: Cell proliferation inhibition experiment (CellTiter-Glo), EBC-1; type: cell-based; conditions: Homo sapiens, CTG, 72 h
Description: (§11) CellTiter-Glo™ live cell detection kit adopts luciferase as the detection substance, and the luciferase needs the participation of ATP in the luminescence process. CellTiter-Glo™ reagent was added into the cell culture medium and the luminescence value was measured. The light signal is in direct proportion to the amount of ATP in the system, ATP is in direct correlation with number of living cells. Therefore, the proliferation of cells can be detected by detecting the content of ATP with CellTiter-Glo kit.
(§12) In the experiment, the proliferation inhibition effect of the prepared compounds on tumor cell lines Hs746T, EBC-1 and H1993 was measured by a celltiter-glo (CTG) method, and 50% inhibition concentration IC50 was calculated.
(§13) The compounds were determined on the selected cells, the solvent control was set and a total of 10 concentrations were detected, 2 replicates per concentration.
(§14) a) Cells in the logarithmic growth phase were harvested and counted by a […]. The cell viability was detected by a trypan blue exclusion method to ensure that the cell viability was over 90%.
(§15) b) The cell concentration was adjusted; 30 μL of cell suspension was added to a 384-well plate respectively.
(§16) c) Cells in a 384-well plate were incubated overnight at 37° C., 5% CO2 and 95% humidity.
(§17) a) 10 times of drug solution was prepared with the highest concentration of 10 mM, 10 concentrations and 3 times dilution, 10 μL of drug solution was added into each well of a 384-well plate inoculated with cells, and three multiple wells were arranged for each drug concentration. DMSO was the blank control.
(§18) b) The cells in the 384-well plate were incubated for a further 72 h at 37° C., 5% CO2 and 95% humidity before CTG analysis.
(§19) a) The CTG reagent was melted and the cell plate was equilibrated to room temperature for 30 min.
(§20) b) An equal volume of CTG solution was added to each well.
(§21) c) Cells were lysed by shaking on an orbital shaker for 5 minutes.
(§22) d) The cell plate was left at room temperature for 20 minutes to stabilize the luminescence signal.
(§23) e) The cold light value was read.
(§24) The data was analyzed by GraphPad Prism 8 software, and the dose-response curve was fitted with nonlinear S-curve regression, and the IC50 value was calculated therefrom.
(§25) Cell viability(%)=(Lumdrugs to be tested-Lumblank control)/(Lumcell control-Lumblank control)×100%.

[4] = system: H1993 cell line; assay: Cell proliferation inhibition experiment (CellTiter-Glo), H1993; type: cell-based; conditions: Homo sapiens, NCI-H1993, CTG, 72 h
Description: as §11, §12, §13, §14, §15, §16, §17, §18, §19, §20, §21, §22, §23, §24, §25

[5] = system: Hs746T cell line; assay: Cell proliferation inhibition experiment (CellTiter-Glo), Hs746T; type: cell-based; conditions: Homo sapiens, Hs 746T, CTG, 72 h
Description: as §11, §12, §13, §14, §15, §16, §17, §18, §19, §20, §21, §22, §23, §24, §25

[6] = molecular target: T3, wild type (WT) MET kinase (Homo sapiens, UniProt P08581); assay: Kinase inhibition experiment (HTRF KinEASE-TK kit), wild-type MET; type: biochemical; conditions: 10 concentrations, 3-fold dilution
T3 construct: purchased Carna 08-151
T3 sequence (P08581 25-1390): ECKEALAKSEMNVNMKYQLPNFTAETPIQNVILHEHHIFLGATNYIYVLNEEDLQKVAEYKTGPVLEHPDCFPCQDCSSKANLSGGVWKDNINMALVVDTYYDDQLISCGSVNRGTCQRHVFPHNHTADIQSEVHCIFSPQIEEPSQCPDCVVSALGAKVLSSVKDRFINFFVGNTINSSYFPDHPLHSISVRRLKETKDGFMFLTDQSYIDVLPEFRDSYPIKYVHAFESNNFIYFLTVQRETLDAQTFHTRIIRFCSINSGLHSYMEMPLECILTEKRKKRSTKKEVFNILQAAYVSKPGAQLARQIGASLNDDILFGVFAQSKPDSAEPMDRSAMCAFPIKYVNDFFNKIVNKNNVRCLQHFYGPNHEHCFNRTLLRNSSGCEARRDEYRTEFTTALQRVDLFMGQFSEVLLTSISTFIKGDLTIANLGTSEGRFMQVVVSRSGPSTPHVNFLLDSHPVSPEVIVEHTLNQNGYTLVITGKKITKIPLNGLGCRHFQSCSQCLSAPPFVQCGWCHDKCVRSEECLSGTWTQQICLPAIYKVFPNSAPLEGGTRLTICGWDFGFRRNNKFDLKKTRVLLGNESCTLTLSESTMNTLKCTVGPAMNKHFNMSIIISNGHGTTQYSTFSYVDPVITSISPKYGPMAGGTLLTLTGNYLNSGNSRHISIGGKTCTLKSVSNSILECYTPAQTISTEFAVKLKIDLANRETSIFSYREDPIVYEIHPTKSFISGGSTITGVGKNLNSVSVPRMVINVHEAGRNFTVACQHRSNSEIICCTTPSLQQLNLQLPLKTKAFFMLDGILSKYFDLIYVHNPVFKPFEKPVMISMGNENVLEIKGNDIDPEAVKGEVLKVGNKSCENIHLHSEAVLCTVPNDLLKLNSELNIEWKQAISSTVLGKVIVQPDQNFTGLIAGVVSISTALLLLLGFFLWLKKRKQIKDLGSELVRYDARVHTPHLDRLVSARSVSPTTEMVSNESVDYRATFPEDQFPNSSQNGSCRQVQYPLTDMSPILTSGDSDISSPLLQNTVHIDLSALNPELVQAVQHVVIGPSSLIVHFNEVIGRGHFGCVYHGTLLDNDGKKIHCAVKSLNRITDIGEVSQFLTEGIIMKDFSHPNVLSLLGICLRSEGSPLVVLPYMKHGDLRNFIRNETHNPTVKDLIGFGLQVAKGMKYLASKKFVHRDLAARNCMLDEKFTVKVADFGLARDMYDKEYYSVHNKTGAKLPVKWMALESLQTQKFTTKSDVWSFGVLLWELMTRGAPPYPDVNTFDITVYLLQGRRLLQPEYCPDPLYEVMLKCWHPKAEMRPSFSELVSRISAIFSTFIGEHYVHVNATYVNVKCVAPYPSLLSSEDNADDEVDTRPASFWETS
Description: as §1, §2, §3, §4, §5, §6, §7, §8, §9, §10

T1 sequence (P08581 25-1390 D1228N): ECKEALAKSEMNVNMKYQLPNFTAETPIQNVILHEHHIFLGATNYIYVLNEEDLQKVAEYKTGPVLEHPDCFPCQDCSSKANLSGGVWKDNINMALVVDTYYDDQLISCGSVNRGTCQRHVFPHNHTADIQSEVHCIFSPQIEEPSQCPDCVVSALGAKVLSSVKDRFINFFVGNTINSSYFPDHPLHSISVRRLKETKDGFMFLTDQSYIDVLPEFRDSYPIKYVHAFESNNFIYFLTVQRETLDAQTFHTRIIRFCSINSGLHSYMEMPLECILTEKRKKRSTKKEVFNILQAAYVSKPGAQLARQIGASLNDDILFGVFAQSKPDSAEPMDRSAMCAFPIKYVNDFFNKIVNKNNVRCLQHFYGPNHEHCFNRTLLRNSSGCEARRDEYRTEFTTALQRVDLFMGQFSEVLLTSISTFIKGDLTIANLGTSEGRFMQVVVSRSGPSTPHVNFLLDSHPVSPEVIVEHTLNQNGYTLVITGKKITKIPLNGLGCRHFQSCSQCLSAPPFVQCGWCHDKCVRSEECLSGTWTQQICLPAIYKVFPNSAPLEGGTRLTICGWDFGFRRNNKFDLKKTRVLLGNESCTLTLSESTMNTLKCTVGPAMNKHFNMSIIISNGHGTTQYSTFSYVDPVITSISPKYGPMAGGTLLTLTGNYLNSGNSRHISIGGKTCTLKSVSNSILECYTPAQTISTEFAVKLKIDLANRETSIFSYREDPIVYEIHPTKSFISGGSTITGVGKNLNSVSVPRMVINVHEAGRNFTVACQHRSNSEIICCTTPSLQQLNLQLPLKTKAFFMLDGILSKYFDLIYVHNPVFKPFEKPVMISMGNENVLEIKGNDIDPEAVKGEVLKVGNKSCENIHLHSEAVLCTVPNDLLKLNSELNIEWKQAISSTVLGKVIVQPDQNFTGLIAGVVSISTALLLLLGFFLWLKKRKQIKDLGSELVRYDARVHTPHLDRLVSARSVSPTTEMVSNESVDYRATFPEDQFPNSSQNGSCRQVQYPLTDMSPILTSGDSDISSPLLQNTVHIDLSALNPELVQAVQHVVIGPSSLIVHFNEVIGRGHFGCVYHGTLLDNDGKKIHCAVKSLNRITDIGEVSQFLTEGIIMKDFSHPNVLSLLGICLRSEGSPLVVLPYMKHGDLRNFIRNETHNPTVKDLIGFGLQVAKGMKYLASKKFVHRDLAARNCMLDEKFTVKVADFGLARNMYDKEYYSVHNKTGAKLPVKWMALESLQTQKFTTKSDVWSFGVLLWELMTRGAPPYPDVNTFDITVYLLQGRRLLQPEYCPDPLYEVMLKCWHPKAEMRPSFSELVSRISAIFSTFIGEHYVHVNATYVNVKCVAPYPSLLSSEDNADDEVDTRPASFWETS

Structure (SMILES) | IC50 [1] [nM] | IC50 [2] [nM] | IC50 [3] [nM] | IC50 [4] [nM] | IC50 [5] [nM] | IC50 [6] [nM]
Cc1ccc(C(=O)Nc2ccc(Oc3ccnc4[nH]nc(N[C@H](C)CO)c34)c(F)c2)[n+]([O-])c1-c1ccc(F)cc1 [Final product 67] | 12.3 | 16.3 | 6.6 | 19.1 | 4.2 | 4
C[C@H](CO)Nc1n[nH]c2nccc(Oc3ccc(NC(=O)c4cccc(-c5ccc(F)cc5F)[n+]4[O-])cc3F)c12 [Final product 44] | 14.8 | 6.7 | 21.3 | 85.3 | 15.2 | 2.5
CC[C@H](CO)Nc1n[nH]c2nccc(Oc3ccc(NC(=O)c4ccc(Cl)c(-c5ccc(F)cc5)[n+]4[O-])cc3F)c12 [Final product 58] | 15.9 | 16.1 | 13.2 | 16.4 | 12.8 | 4.9
C[C@H](CO)Nc1n[nH]c2nccc(Oc3ccc(NC(=O)c4cccc(-c5ccc(F)cc5)[n+]4[O-])cc3F)c12 [Final Product 2, (R)-2-((3-fluoro-4-((3-((1-hydroxypropan-2-yl)amino)-1H-pyrazolo[3,4-b]pyridin-4-yl)oxy)phenyl)carbamoyl)-6-(4-fluorophenyl)pyridine 1-oxide] | 18 | 3 | 12.6 | 31.8 | 8.5 | 0.9
C[C@H](CO)Nc1n[nH]c2nccc(Oc3ccc(NC(=O)c4cccc(-c5ccc(F)cc5)[n+]4[O-])cc3Cl)c12 [Final product 97] | 20.8 | 7 | 12.9 | 36.4 | 12.1 | 3.3
CC(C)(O)CNc1n[nH]c2nccc(Oc3ccc(NC(=O)c4cccc(-c5ccc(F)cc5)[n+]4[O-])cc3F)c12 [Final product 10] | 13.6 | 30.9 | 52.5 |  | 29.1 | 4.7
Cc1ccc(C(=O)Nc2ccc(Oc3ccnc4[nH]nc(N[C@H](C)CO)c34)c(Cl)c2)[n+]([O-])c1-c1ccc(F)cc1 [Final product 124] | 7.6 | 0.8 | 14.9 | 29.9 | 21.9 | 0.8
O=C(Nc1ccc(Oc2ccnc3[nH]nc(NC4COCC4O)c23)c(F)c1)c1cccc(-c2ccc(F)cc2)[n+]1[O-] (stereo not shown) [Final product 24] | 29.5 | 9.5 | 20.1 |  | 14.5 | 2.5
Cc1ccc(C(=O)Nc2ccc(Oc3ccnc4[nH]nc(NCC(O)CO)c34)c(F)c2)[n+]([O-])c1-c1ccc(F)cc1 (stereo not shown) [Final product 69] | 25.4 | 12.3 | 29.3 | 68.4 | 19.6 | 3
O=C(Nc1ccc(Oc2ccnc3[nH]nc(N[C@@H]4CCC(O)C4)c23)c(F)c1)c1ccc(Cl)c(-c2ccc(F)cc2)[n+]1[O-] (stereo partly shown) [Final product 63] | 26.6 | 13.1 | 13.4 |  | 4.6 | 4.7
O=C(Nc1ccc(Oc2ccnc3[nH]nc(N4CCC(CO)CC4)c23)c(F)c1)c1cccc(-c2ccc(F)cc2)[n+]1[O-] [Final product 28] | 34.5 | 9.6 | 17.1 |  | 14 | 3
O=C(Nc1ccc(Oc2ncnc3ccn(CCCO)c23)c(F)c1)c1cccc(-c2ccc(F)cc2)[n+]1[O-] [Final product 168, 2-((3-fluoro-4-((5-(3-hydroxypropyl)-5H-pyrrolo[3,2-d]pyrimidin-4-yl)oxy)phenyl)carbamoyl)-6-(4-fluorophenyl)pyridine 1-oxide] | 13.9 | 9.2 | 56.7 |  | 65.4 | 3.8
